Data from ChEMBL document CHEMBL1154825, “Schweinfurthins I and J from Macaranga schweinfurthii” (2010).

Tests used:
Assay type in all cases: functional
PC-3 = experiment: Growth inhibition of human PC3 cells
MOLT-4 = experiment: Growth inhibition of human MOLT4 cells
SF-295 = experiment: Growth inhibition of human SF295 cells
SNB-19 = experiment: Growth inhibition of human SNB19 cells
[1] = Growth inhibition of human Hs 578T cells
LOX IMVI = experiment: Growth inhibition of human LOXIMVI cells
HOP-62 = experiment: Growth inhibition of human HOP62 cells
IGROV-1 = experiment: Growth inhibition of human IGROV1 cells
OVCAR-3 = experiment: Growth inhibition of human OVCAR-3 cells
MDA-MB-231 = experiment: Growth inhibition of human MDA-MB-231 cells
NCI-H23 = experiment: Growth inhibition of human NCI-H23 cells
CCRF-CEM = experiment: Growth inhibition of human CCRF-CEM cells
OVCAR-8 = experiment: Growth inhibition of human OVCAR8 cells
RPMI-8226 = experiment: Growth inhibition of human RPMI8226 cells
786-0 = experiment: Growth inhibition of human 786-0 cells
HCT-116 = experiment: Growth inhibition of human HCT116 cells
NCI-H522 = experiment: Growth inhibition of human NCI-H522 cells
K562 = experiment: Growth inhibition of human K562 cells
RXF 393 = experiment: Growth inhibition of human […] cells
SNB-75 = experiment: Growth inhibition of human SNB75 cells
UACC-62 = experiment: Growth inhibition of human UACC62 cells
COLO 205 = experiment: Growth inhibition of human COLO205 cells
SK-MEL-2 = experiment: Growth inhibition of human SK-MEL-2 cells
NCI-H226 = experiment: Growth inhibition of human NCI-H226 cells
UACC-257 = experiment: Growth inhibition of human UACC257 cells
[2] = Growth inhibition of human NCI60 cells
SF-268 = experiment: Growth inhibition of human SF268 cells
NCI-H322M = experiment: Growth inhibition of human NCI-H322M cells
T47D = experiment: Growth inhibition of human T47D cells
NCI/ADR-RES = experiment: Growth inhibition of human NCI/ADR-RES cells
SK-MEL-5 = experiment: Growth inhibition of human SK-MEL-5 cells
TK-10 = experiment: Growth inhibition of human TK10 cells
HL-60(TB) = experiment: Growth inhibition of human HL-60(TB) cells
CAKI-1 = experiment: Growth inhibition of human Caki1 cells
SK-MEL-28 = experiment: Growth inhibition of human SK-MEL-28 cells
MDA-MB-468 = experiment: Growth inhibition of human MDA-MB-468 cells
HOP-92 = experiment: Growth inhibition of human HOP92 cells
U-251 = experiment: Growth inhibition of human U251 cells
SK-OV-3 = experiment: Growth inhibition of human SKOV3 cells
SN12C = experiment: Growth inhibition of human SN12C cells
MDA-MB-435 = experiment: Growth inhibition of human MDA-MB-435 cells
OVCAR-5 = experiment: Growth inhibition of human OVCAR5 cells
A549 = experiment: Growth inhibition of human A549 cells
UO-31 = experiment: Growth inhibition of human UO31 cells
[3] = read-out: pLC50 (the source's name) (converted)

## CC(C)=CCC/C(C)=C/CC/C(C)=C/Cc1c(O)cc(/C=C/c2ccc(O)cc2)cc1O [SCHWEINFURTHIN J]
PC-3
  GI50: 3.02 µM
  LC50: 42.7 µM
PC-3; read-out: pTGI (converted)
  TGI: 13.5 µM
MOLT-4
  GI50: 4.07 µM
  LC50: > 100 µM
MOLT-4; read-out: pTGI (converted)
  TGI: 25.1 µM
SF-295
  GI50: 2.29 µM
  LC50: 45.7 µM
SF-295; read-out: pTGI (converted)
  TGI: 11.5 µM
SNB-19
  GI50: 6.76 µM
  LC50: 46.8 µM
SNB-19; read-out: pTGI (converted)
  TGI: 19.5 µM
[1]
  GI50: 2.88 µM
  LC50: 89.1 µM
[1]; read-out: pTGI (converted)
  TGI: 12.3 µM
LOX IMVI
  GI50: 1.7 µM
LOX IMVI; [3]
  CC50: 5.89 µM
LOX IMVI; read-out: pTGI (converted)
  TGI: 3.16 µM
HOP-62
  GI50: 2.04 µM
  LC50: 7.41 µM
HOP-62; read-out: pTGI (converted)
  TGI: 3.89 µM
IGROV-1
  GI50: 2.34 µM
IGROV-1; [3]
  CC50: 38.9 µM
IGROV-1; read-out: pTGI (converted)
  TGI: 11.2 µM
OVCAR-3
  GI50: 2 µM
  LC50 (concentration killing 50% of cells): 14.1 µM
OVCAR-3; read-out: pTGI (converted)
  TGI: 4.79 µM
MDA-MB-231
  GI50: 3.47 µM
  LC50: 44.7 µM
MDA-MB-231; read-out: pTGI (converted)
  TGI: 11.7 µM
NCI-H23
  GI50: 3.02 µM
  LC50: 36.3 µM
NCI-H23; read-out: pTGI (converted)
  TGI: 8.51 µM
CCRF-CEM
  GI50: 0.537 µM
  LC50: > 100 µM
CCRF-CEM; read-out: pTGI (converted)
  TGI: 17 µM
OVCAR-8
  GI50: 3.31 µM
  LC50: 43.7 µM
OVCAR-8; read-out: pTGI (converted)
  TGI: 11.5 µM
RPMI-8226
  GI50: 3.16 µM
  LC50: > 100 µM
RPMI-8226; read-out: pTGI (converted)
  TGI: 14.8 µM
786-0
  GI50: 1.95 µM
786-0; [3]
  CC50: 9.77 µM
786-0; read-out: pTGI (converted)
  TGI: 4.37 µM
HCT-116
  GI50: 1.86 µM
HCT-116; [3]
  CC50: 7.94 µM
HCT-116; read-out: pTGI (converted)
  TGI: 3.89 µM
NCI-H522
  GI50: 1.82 µM
  LC50: 13.2 µM
NCI-H522; read-out: pTGI (converted)
  TGI: 4.47 µM
K562
  GI50: 3.72 µM
  LC50: > 100 µM
K562; read-out: pTGI (converted)
  TGI: 22.9 µM
RXF 393
  GI50: 1.86 µM
RXF 393; [3]
  CC50: 6.61 µM
RXF 393; read-out: pTGI (converted)
  TGI: 3.55 µM
SNB-75
  GI50: 8.91 µM
  LC50: 46.8 µM
SNB-75; read-out: pTGI (converted)
  TGI: 21.4 µM
UACC-62
  GI50: 2.24 µM
UACC-62; [3]
  CC50: 15.8 µM
UACC-62; read-out: pTGI (converted)
  TGI: 5.25 µM
COLO 205
  GI50: 6.46 µM
  LC50: 44.7 µM
COLO 205; read-out: pTGI (converted)
  TGI: 18.6 µM
SK-MEL-2
  GI50: 2.75 µM
  LC50: 31.6 µM
SK-MEL-2; read-out: pTGI (converted)
  TGI: 8.13 µM
NCI-H226
  GI50: 3.63 µM
  LC50: 55 µM
NCI-H226; read-out: pTGI (converted)
  TGI: 14.8 µM
UACC-257
  GI50: 4.68 µM
  LC50: 41.7 µM
UACC-257; read-out: pTGI (converted)
  TGI: 16.2 µM
[2]
  GI50: 2.8 µM
SF-268
  GI50: 2.63 µM
  LC50: 38 µM
SF-268; read-out: pTGI (converted)
  TGI: 11.5 µM
NCI-H322M
  GI50: 6.17 µM
  LC50: 47.9 µM
NCI-H322M; read-out: pTGI (converted)
  TGI: 20 µM
T47D
  GI50: 2.63 µM
  LC50: 52.5 µM
T47D; read-out: pTGI (converted)
  TGI: 13.2 µM
NCI/ADR-RES
  GI50: 3.16 µM
NCI/ADR-RES; [3]
  CC50: 38.9 µM
NCI/ADR-RES; read-out: pTGI (converted)
  TGI: 9.77 µM
SK-MEL-5
  GI50: 1.7 µM
SK-MEL-5; [3]
  CC50: 5.75 µM
SK-MEL-5; read-out: pTGI (converted)
  TGI: 3.16 µM
TK-10
  GI50: 2.63 µM
  LC50: 31.6 µM
TK-10; read-out: pTGI (converted)
  TGI: 9.33 µM
HL-60(TB)
  GI50: 2.57 µM
HL-60(TB); [3]
  CC50: > 100 µM
HL-60(TB); read-out: pTGI (converted)
  TGI: 18.6 µM
CAKI-1
  GI50: 1.82 µM
CAKI-1; [3]
  CC50: 25.1 µM
CAKI-1; read-out: pTGI (converted)
  TGI: 5.89 µM
SK-MEL-28
  GI50: 2.45 µM
SK-MEL-28; [3]
  CC50: 23.4 µM
SK-MEL-28; read-out: pTGI (converted)
  TGI: 6.46 µM
MDA-MB-468
  GI50: 2.69 µM
MDA-MB-468; [3]
  CC50: 36.3 µM
MDA-MB-468; read-out: pTGI (converted)
  TGI: 8.91 µM
HOP-92
  GI50: 2.29 µM
HOP-92; [3]
  CC50: 34.7 µM
HOP-92; read-out: pTGI (converted)
  TGI: 8.32 µM
U-251
  GI50: 2.75 µM
  LC50: 30.9 µM
U-251; read-out: pTGI (converted)
  TGI: 8.32 µM
SK-OV-3
  GI50: 7.24 µM
SK-OV-3; [3]
  CC50: 44.7 µM
SK-OV-3; read-out: pTGI (converted)
  TGI: 19.5 µM
SN12C
  GI50: 1.95 µM
SN12C; [3]
  CC50: 9.77 µM
SN12C; read-out: pTGI (converted)
  TGI: 4.37 µM
MDA-MB-435
  GI50: 3.09 µM
MDA-MB-435; [3]
  CC50: 46.8 µM
MDA-MB-435; read-out: pTGI (converted)
  TGI: 10.5 µM
OVCAR-5
  GI50: 4.47 µM
  LC50: 44.7 µM
OVCAR-5; read-out: pTGI (converted)
  TGI: 15.8 µM
A549
  GI50: 3.31 µM
  LC50: 42.7 µM
A549; read-out: pTGI (converted)
  TGI: 12.9 µM
UO-31
  GI50: 1.32 µM
  LC50 (concentration killing 50% of cells): 34.7 µM
UO-31; read-out: pTGI (converted)
  TGI: 10.2 µM
